Data as given in PubChem BioAssay AID179 (DTP/NCI, 2004).
Values joined by “and” are separate entries in the source; they are usually repeats but may differ in a detail not shown here. Equal entries are not always repeated. Active and inactive are the calls of the source.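 Rule for the calls: active = compounds giving half or more protection of infected cells from virus-caused growth loss, again on retest; inactive = the rest.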

System: CEM cells HIV-1 protection, formazan growth assay
Assay: NCI AIDS Antiviral Assay
Settings: for IC50: measured here: growth of uninfected CEM cells
In short: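 Category rules: moderately active means at least 50% protection on retest, and confirmed active means 100% protection reproducibly. The underlying data came from a formazan growth assay in HIV-1-infected CEM cells.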

Row | Structure (SMILES) | EC50 | IC50 | outcome
1 | Cc1cc(O)c(C=NC(=S)C(N)=S)c(=O)o1 | > 200 µM | 41.7 µM | 
2 | CC1(C)C(=O)C2(C#N)CCC1C2 (configuration not stated) | > 200 µM | > 200 µM | 
3 | CSC1NNC2(C(=O)N1)c1ccccc1-c1ccccc12 (configuration not stated) | > 200 µM | 26.9 µM | 
4 | Cc1n[nH]c(=O)n1N1C(=O)c2ccccc2C1=O | > 200 µM | > 200 µM | 
5 | O=CNNC(=O)Nc1cccc2ccccc12 | > 200 µM | > 200 µM | 
6 | c1ccc(-c2cn3c(nc4ccccc43)c(-c3ccccc3)n2)cc1 | > 200 µM | 132 µM | 
7 | COc1ccccc1N/N=c1\c2nc3ccccc3nc1n(-c1ccccc1C)c(=S)n2-c1ccccn1 | > 200 µM | > 100 µM | 
8 | CC[C@@H]1C[C@@H]2CN3CCc4c([nH]c5ccc(OC)cc45)C(COC(=O)c4ccc(OC)c(OC)c4)(C2)C13 |  |  | inactive
9 | CCOC(=O)N/N=C(/N)c1cccc([N+](=O)[O-])c1 | > 200 µM | > 200 µM | 
10 | O=C(c1ccccc1F)c1c(NCc2ccccc2)c(=O)c1=O | 53.7 µM | 102 µM | 
11 | N=c1c2ncn3c(=O)n(-c4ccccc4)c(nc(=O)n1-c1ccccc1)c23 | > 14.5 µM | 8.32 µM | 
12 | CCCCCC#CCOC(=O)C(=[N+]=[N-])P(=O)(c1ccccc1)c1ccccc1 | > 200 µM | 95.5 µM | 
13 | CCOC(=O)C1Cc2[nH]c3ccccc3c2C(C)C1C (configuration not stated) | > 95.5 µM | 49 µM | 
14 | COc1nc(NC2OC(CO)C(O)C(O)C2O)cc(=O)[nH]1 (configuration not stated) |  |  | inactive
15 | CCCCCCCCCCCCn1[se]c2ccccc2c1=O | 5.01 µM | 5.5 µM | 
16 | Nc1c(O)cc(N=C2C(=O)C=CC=C2C(=O)O)c(O)c1C(=O)O |  |  | inactive
17 | O=C1C2C3C=C4c5ccccc5N(c5ccccc5)C4(C2C(=O)N1c1ccc(Br)cc1)[C@H]1C(=O)N(c2ccc(Br)cc2)C(=O)[C@@H]31 (some centres not stated) | > 5.25 µM | > 5.25 µM | 
18 | Cc1cc(=O)oc2c(CNC(Cc3ccccc3)C(=O)O)c(O)ccc12 (configuration not stated) | > 200 µM | > 200 µM | 
19 | Cc1cccc(C2=C/C(=C(\SS/C(C(=O)c3ccc(OCC(=O)O)c(Cl)c3Cl)=C3\C=C(c4cccc(C)c4)SS3)C(=O)c3ccc(OCC(=O)O)c(Cl)c3Cl)SS2)c1 |  |  | inactive
20 | N#CC1=C(N)OC(c2cccc([N+](=O)[O-])c2)C1(C#N)C#N (configuration not stated) | > 200 µM | 15.5 µM | 
21 | O=C(O)c1cc(O)c2c(=O)c3c(O)cc(O)c4c5c(O)cc(O)c6c(=O)c7c(O)cc(C(=O)O)c8c1c2c(c34)c(c65)c78 |  |  | inactive

Row | Structure (SMILES) | EC50 | IC50 | outcome
22 | COc1cc(C2C(Cl)C(=O)N2NC(=O)c2ccc(NC(C)=O)cc2)cc(OC)c1OC (configuration not stated) | > 200 µM | > 200 µM | 
23 | Cc1cccc(C(C)C)c1NC(=O)CC1Sc2ccccc2NC1=O (configuration not stated) | > 20.4 µM |  | 
24 | Cc1[nH]c2cc([N+](=O)[O-])ccc2c1[N+](=O)[O-] |  |  | inactive
25 | CCOC(=O)C1=C(C)N(NC(N)=O)C(C)(O)C12CCOC2=O (configuration not stated) | > 794 µM | > 794 µM | 
26 | Cc1ccccc1NC(=O)CSc1nnc(-c2ccc(N=Cc3ccc(Cl)cc3)cc2)o1 | > 389 µM | 5.62 µM | 
27 | COC(=O)C(=O)C(C(=O)C(=O)Nc1ccc(C)cc1)c1nc2ccc(C(=O)c3ccccc3)cc2[nH]c1=O (configuration not stated) | > 26.3 µM | > 26.3 µM | 
28 | O=[N+]([O-])C(C=Nc1ccccc1)C=Nc1ccccc1 (configuration not stated) | > 200 µM | 107 µM | 
29 | O=Cc1c2ccccc2n2ccc3c4ccccc4[nH]c3c12 | > 200 µM | > 200 µM | 
30 | COC(=O)[C@]1(C)CCCC2(C)C1CC[C@H]1C=C(C)[C@H]3CCC12C3 (some centres not stated) | > 112 µM | > 112 µM | 
31 | COc1ccc(C2c3cc(OC)c(OC)cc3CC3C(=O)OCC32)cc1OC (configuration not stated) | > 200 µM | > 200 µM | 
32 | COC(=O)c1cc2c(cc1CC(Cc1ccc3c(c1)CCCC3)C(=O)OC)CCCC2 (configuration not stated) | > 200 µM | 57.5 µM | 
33 | CCc1cccc(CC)c1NC(=O)C1=C(C)NC(C)=C(C(=O)Nc2c(CC)cccc2CC)C1c1ccc2c(c1)OCO2 | > 44.7 µM | 23.4 µM | 
34 | O=C(NC(N1CCN(c2cc3c(cc2F)c(=O)c(C(=O)O)cn3C2CC2)CC1)(C(F)(F)F)C(F)(F)F)c1ccccc1 | > 200 µM | 105 µM | 
35 | CN(C)CCCNC(=O)c1cc(NC(=O)c2cc(NC(=O)c3cc(NC(=O)c4cncc(C(=O)Nc5cc(C(=O)Nc6cc(C(=O)Nc7cc(C(=O)NCCCN(C)C)n(C)c7)n(C)c6)n(C)c5)c4)cn3C)cn2C)cn1C | > 100 µM | > 100 µM | 
36 | OCc1ccc[n+](CCc2c[nH]c3ccccc23)c1 | > 759 µM | 316 µM | 
37 | Cc1ccc(C(CCO)CCO)nc1 | > 200 µM | > 200 µM | 
38 | N[C@@H](CCC(=O)NCP(=O)(O)O)C(=O)O | > 200 µM | > 200 µM | 
39 | O=C(CC(=O)C(=O)Nc1ccccc1)CC(c1ccccc1)c1c(O)c2ccccc2oc1=O (configuration not stated) | > 550 µM | 263 µM | 
40 | O=C1Oc2ccccc2C(=O)/C1=C/N1C(=O)N/C(=C\c2cccc(O)c2)C1=O | > 200 µM | 148 µM | 
41 | O=C(O)c1cc(O)cc(O)c1N=Nc1ccc(/C=C/c2ccc(N=Nc3c(O)cc(O)cc3C(=O)O)cc2)cc1 | 70.8 µM and 25.1 µM | 132 µM and > 100 µM | 
42 | O=C1/C(=C/c2ccc(F)cc2)CCC/C1=C\c1ccc(F)cc1 | > 23.4 µM | > 23.4 µM | 
